Columns and labels:
[1] = design: species or system mice and monkeys; conditions: in vivo
Protocol: (§1) Details of in vivo PK studies of KDU691 and LMV599 in CD-1 mice and monkeys can be found in the supplemental material.
Pharmacokinetic analysis.
Mean values of compound concentrations in plasma and liver were obtained from three animals at each time point and plotted against time to generate concentration-time profiles. Pharmacokinetic parameters were determined using WinNonlin Professional, version 5.0.1 (Pharsight, California, USA), by non-compartmental modeling using software model 200 for oral dosing. The oral bioavailability (F) was calculated as the ratio between the area under the curve from 0 to infinity (AUCinf) following oral administration and the AUCinf following intravenous administration corrected for dose (F = AUCp.o. * dosei.v. / AUCi.v. * dosep.o.).
PK-PD relationship analysis.
The compound concentration that inhibited 50% of P. cynomolgi growth (IC50) was used to calculate the threshold (TRE = 3*IC50) and the PK-PD indices. The Cmax/TRE was defined as the ratio of peak plasma concentration (Cmax) to the threshold (3*IC50), the AUC0-24/TRE was defined as the ratio of area under the curve from 0 to 24 hours (AUC0-24) to the threshold, and the percent time over threshold (%T>TRE) was defined as the percentage of the 24 hour period during which the compound concentration exceeded the […]
Table S3: Monkey stratification for the in vivo testing of KDU691. […]

[2] = design: species or system rhesus macaques (Macaca mulatta); conditions: rhesus monkey, in vivo, po, 20 mg/kg
Description: Blood samples were collected for clinical evaluation and pharmacokinetic (PK) analysis (see Table S2 in the supplemental material).
as §1
P. cynomolgi sporozoite production
A monkey was infected with […] P. cynomolgi M strain blood stage parasites, thawed from a first passage stock (i.e. blood stage parasites from a monkey infected with P. cynomolgi M strain sporozoites). For each batch of sporozoites needed, a single monkey was infected with P. cynomolgi blood stage parasites.
At day 11 and 12 post infection 9 mL infected blood was collected into a Lithium-heparinised tube. The blood was kept at 38°C and fed approximately 500 three to five days old female Anopheles stephensi mosquitoes Sind-Kasur strain Nijmegen (Nijmegen University Medical Centre St Radboud, Department of Medical Microbiology) using a glass feeder system as described by Ponnudurai et al.. After the second bleed, the monkey was cured by three daily intramuscular injections of 7.5 mg/kg chloroquine, monitored for parasite clearance 24 days after chloroquine treatment and returned to colony.
Mosquitoes were kept in climate chambers at 25 °C and 80% humidity and were fed 5% D -glucose on cotton pads daily. Seven days after feeding on the infected rhesus blood, oocyst numbers were determined in midguts of ten individuals, using 1% mercurochrome stain. Mosquitoes were given a second (uninfected) blood meal immediately afterwards to promote sporozoite maturation and invasion of the salivary glands. Sporozoites were isolated from the P. cynomolgi infected mosquitoes around day16 after the infected blood meal.
In vivo monkey infection and treatment procedures
Sporozoites were isolated from the P. cynomolgi infected mosquitoes around day16 after the infected blood meal. For this, mosquitoes were collected in a beaker and killed with 70% ethanol. After four washes in Leibovitz’ L15 medium containing 3% FCS and 2% pen/strep, salivary glands were dissected.
Salivary glands were kept on ice at all times, sporozoites were liberated by pottering. The sporozoites were washed with PBS, counted in a Burker-Turk chamber, and diluted to 100,000 spz/mL in PBS.
Aliquots of 1 mL were prepared and injected into monkeys via intravenous (i.v.) injection. […]
group (691-RC-high) and a control group (691-C)
KDU691 was formulated as a micro suspension in 0.5% Methylcellulose/0.5% Tween 80 in water, maximum one hour before dosing. The amount of KDU691 sufficient to treat all animals of one group was weighed, a microsuspension of 10 mg/mL in methylcellulose/tween was made and sonicated (Soniprep 150, Sanyo) with an amplitude of 12-15 µm for 15 min. The dose for each monkey was transferred to a 50 mL tube, which was vortexed extensively just before administration.
To collect samples for KDU691 PK analysis in monkeys, approximately 100 µL blood was taken from the calf vein for each time point and immediately spotted onto DBS filters (PKI Bioanalysis cards, Perkin Elmer). […]
The monkeys of the LMV599/PQ experiment were cured with a five day CQ treatment (7.5 mg/kg, i.m. administration) at the first relapse and were monitored until the second relapse after which they were cured with CQ (7.5 mg/kg, intramuscular (i.m.) for five days) plus PQ (1.8 mg/kg for 14 days). […]

Compound: CNC(=O)c1ccc(-c2cnc3cnc(C(=O)N(C)c4ccc(Cl)cc4)cn23)cc1 [KDU691]
- oral bioavailability [1]: 52-66%
- % fT > TRE [2]: 16.7%
- AUC [2]: 38.82 µM·h
- Cmax [2]: 4.31 µM
- fAUC/TRE [2]: 13.08
- fCmax/TRE [2]: 1.45
